Assay [1] has as its target T1, human LPA3 (Homo sapiens, UniProt Q9UBY5).
T1 construct: The full-length cDNA fragment for human LPA3 was obtained by PCR from the vector; expressed in transfected cells; cDNA from the Missouri S&T cDNA Resource Center
T1 sequence (Q9UBY5 1-353): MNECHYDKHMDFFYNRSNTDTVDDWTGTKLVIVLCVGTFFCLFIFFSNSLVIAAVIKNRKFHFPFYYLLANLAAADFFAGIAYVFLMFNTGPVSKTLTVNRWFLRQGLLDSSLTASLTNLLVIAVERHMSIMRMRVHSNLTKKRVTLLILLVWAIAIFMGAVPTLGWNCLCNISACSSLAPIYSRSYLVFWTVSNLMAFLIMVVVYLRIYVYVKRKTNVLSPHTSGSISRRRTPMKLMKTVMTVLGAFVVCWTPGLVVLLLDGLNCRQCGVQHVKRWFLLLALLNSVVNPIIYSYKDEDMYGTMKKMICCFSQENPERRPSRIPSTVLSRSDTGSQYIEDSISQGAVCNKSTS
In words: LPA3 calcium flux assay. The following applies: Human LPA3 expressing CHO cells, stimulated with 10 nM LPA; read-out: HLPA3 Ca Flux IC50. The format is cell-based. The protocol:
A vector containing the human LPA3 receptor cDNA was obtained from the Missouri S&T cDNA Resource Center (www.cdna.org). The full-length cDNA fragment for human LPA3 was obtained by PCR from the vector. The nucleotide sequence of the cloned human LPA3 was determined by sequencing and confirmed to be identical to the published human LPA3 sequence (NCBI accession number NM 012152). The cDNA was cloned into the pcDNA5/FRT expression plasmid and transfected in CHO cells using lipofectamine 2000 (Invitrogen Corp., USA). Clones stably expressing human LPA3 were selected using hygromycin and identified as cells that show Ca-influx in response to LPA.
Human LPA1 or LPA3 expressing CHO cells are seeded at 20,000-45,000 cells per well in a 96-well poly-D-lysine coated plate one or two days before the assay. Prior to the assay, the cells are washed once with PBS and then cultured in serum-free media overnight. On the day of the assay, a calcium indicator dye (Calcium 4, Molecular Devices) in assay buffer (HBSS with Ca^2+ and Mg^2+ and containing 20 mM Hepes and 0.3% fatty-acid free human serum albumin) is added to each well and incubation continued for 1 hour at 37° C. 10 μl of test compounds in 2.5% DMSO are added to the cells and incubation continued at room temperature for 30 minutes. Cells are the stimulated by the addition of 10 nM LPA and intracellular Ca^2+ measured using the Flexstation 3 (Molecular Devices). IC50s are determined using Graphpad prism analysis of drug titration curves.
(Calcium flux is commonly read through the fluorescence of an indicator in the cells.)

The target of assay [2] is T2, human LPA1 (Homo sapiens, UniProt Q92633).
T2 construct: the full-length cDNA for human LPA1 was obtained by PCR of the reverse transcription reaction; expressed in transfected cells
The assay is described as follows: LPA1 calcium flux assay (HLPA1 Ca Flux). The format is cell-based. To be noted: Human LPA1 expressing CHO cells, stimulated with 10 nM LPA. The essentials:
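Compounds were fitted for IC50 from inhibition of the intracellular calcium rise evoked by 10 nM LPA. Test system: dye-loaded CHO cells stably transfected with human LPA1, serum-free overnight, with 30 min compound pretreatment at room temperature before stimulation.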

Structures are written as SMILES.

T2 sequence (Q92633 whole entry): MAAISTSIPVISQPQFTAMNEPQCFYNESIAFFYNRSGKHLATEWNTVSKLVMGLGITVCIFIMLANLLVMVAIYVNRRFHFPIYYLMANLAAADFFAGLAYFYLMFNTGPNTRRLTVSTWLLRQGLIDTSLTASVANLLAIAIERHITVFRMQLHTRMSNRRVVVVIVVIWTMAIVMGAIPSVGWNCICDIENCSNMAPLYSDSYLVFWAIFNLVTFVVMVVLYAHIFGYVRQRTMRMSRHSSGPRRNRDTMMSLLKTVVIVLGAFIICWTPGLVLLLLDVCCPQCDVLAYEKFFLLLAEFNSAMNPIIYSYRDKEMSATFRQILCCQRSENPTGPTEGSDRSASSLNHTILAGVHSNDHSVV

By IC50 is commonly meant the concentration needed to halve the response being measured. Take `Cc1noc(-c2ccc(-c3ccc(Cc4nn[nH]n4)cc3)cc2)c1NC(=O)O[C@H](C)c1ccccc1F` [Compound 2-4, {3-Methyl-5-[4′-(2H-tetrazol-5-ylmethyl)-biphenyl-4-yl]-isoxazol-4-yl}-carbamic acid (R)-1-(2-fluoro-phenyl)-ethyl ester]: the IC50 in assay [1] was 1000 to 50000 nM; in assay [2], less than 300 nM.
Consider `Cc1noc(-c2ccc(Oc3ccc(CC(=O)O)cc3)cc2)c1NC(=O)O[C@H](C)c1ccccc1F` [Compound 1-84, [4-(4-{4-[(R)-1-(2-Fluoro-phenyl)-ethoxycarbonylamino]-3-methyl-isoxazol-5-yl}-phenoxy)-phenyl]-acetic acid], for which the half-inhibitory concentration (IC50) in assay [1] is 1000 to 50000 nM; in assay [2], less than 300 nM.
The matching figures for `Cc1noc(-c2ccc(-c3ncc(C(=O)O)s3)cc2)c1NC(=O)OC(C)c1ccccc1Cl` (centres unmarked) [Compound 1-94, 2-(4-{4-[1-(2-Chloro-phenyl)-ethoxycarbonylamino]-3-methyl-isoxazol-5-yl}-phenyl)-thiazole-5-carboxylic acid]: 1000 to 50000 nM and less than 300 nM.
The matching figures for `Cc1noc(-c2ccc(-c3ccc(CC(=O)O)cc3)cc2)c1NC(=O)OC(C)c1c(F)cccc1F` (centres unmarked) [Compound 1-120, (4′-{4-[1-(2,6-Difluoro-phenyl)-ethoxycarbonylamino]-3-methyl-isoxazol-5-yl}-biphenyl-4-yl)-acetic acid]: greater than 50000 nM and less than 300 nM.
The matching figures for `CCC(C(=O)O)c1ccc(-c2ccc(-c3onc(C)c3NC(=O)O[C@H](C)c3ccccc3Cl)cc2)cc1` (stereo partly drawn) [Compound 1-130, 2-(4′-{4-[(R)-1-(2-Chloro-phenyl)-ethoxycarbonylamino]-3-methyl-isoxazol-5-yl}-biphenyl-4-yl)-butyric acid]: 300 to 1000 nM and less than 300 nM.
Turning to `Cc1noc(-c2ccc(Cn3cc(C(=O)O)cn3)cc2)c1NC(=O)OC(C)c1ccccc1Cl` (centres unmarked) [Compound 1-9, 1-(4-{4-[1-(2-Chloro-phenyl)-ethoxycarbonylamino]-3-methyl-isoxazol-5-yl}-benzyl)-1H-pyrazole-4-carboxylic acid], the IC50 in assay [1] was 1000 to 50000 nM; in assay [2], less than 300 nM.
For `Cc1noc(-c2ccc(-c3ccc(C(=O)O)cn3)cc2)c1NC(=O)OC(C)c1ccccc1Cl` (centres unmarked) [Compound 1-54, 6-(4-{4-[1-(2-Chloro-phenyl)-ethoxycarbonylamino]-3-methyl-isoxazol-5-yl}-phenyl)-nicotinic acid] the same measures were 1000 to 50000 nM and less than 300 nM.
The matching figures for `Cc1noc(-c2ccc(C3CCC(C(=O)O)CC3)cc2)c1NC(=O)OC(C)c1ccccc1Cl` (centres unmarked) [Compound 1-67, 4-(4-{4-[1-(2-Chloro-phenyl)-ethoxycarbonylamino]-3-methyl-isoxazol-5-yl}-phenyl)-cyclohexanecarboxylic acid]: 1000 to 50000 nM and less than 300 nM.
The matching figures for `Cc1noc(-c2ccc(-c3ccc(CC(=O)O)cc3)cc2)c1NC(=O)O[C@H](C)c1ccccc1F` [Compound 1-78, (4′-{4-[(R)-1-(2-Fluoro-phenyl)-ethoxycarbonylamino]-3-methyl-isoxazol-5-yl}-biphenyl-4-yl)-acetic acid]: 1000 to 50000 nM and less than 300 nM.
For the compound `Cc1noc(-c2cccc(-c3cccc(CC(=O)O)c3)c2)c1NC(=O)OC(C)c1ccccc1Cl` (centres unmarked) [Compound 1-60, (3′-{4-[1-(2-Chloro-phenyl)-ethoxycarbonylamino]-3-methyl-isoxazol-5-yl}-biphenyl-3-yl)-acetic acid], the IC50 in assay [1] and in assay [2] was 1000 to 50000 nM each time.
As for `Cc1noc(-c2ccc(-c3cccc(C(=O)O)n3)cc2)c1NC(=O)OC(C)c1ccccc1Cl` (centres unmarked) [Compound 1-53, 6-(4-{4-[1-(2-Chloro-phenyl)-ethoxycarbonylamino]-3-methyl-isoxazol-5-yl}-phenyl)-pyridine-2-carboxylic acid], the figures for the IC50 in assay [1] and in assay [2] were 1000 to 50000 nM and less than 300 nM, respectively.
As for `Cc1noc(-c2ccc(Cn3cncc3C(=O)O)cc2)c1NC(=O)OC(C)c1ccccc1Cl` (centres unmarked) [Compound 1-3, 3-(4-{4-[1-(2-Chloro-phenyl)-ethoxycarbonylamino]-3-methyl-isoxazol-5-yl}-benzyl)-3H-1-imidazole-4-carboxylic acid], the IC50 in assay [1] was 1000 to 50000 nM; in assay [2], less than 300 nM.
For `Cc1noc(-c2ccc(-c3ccc(CC(=O)O)cc3)cc2)c1NC(=O)OC(C)c1cccc(F)c1F` (centres unmarked) [Compound 1-116, (4′-{4-[1-(2,3-Difluoro-phenyl)-ethoxycarbonylamino]-3-methyl-isoxazol-5-yl}-biphenyl-4-yl)-acetic acid] the same measures were 1000 to 50000 nM and less than 300 nM.
The matching figures for `Cc1noc(-c2ccc(Cn3ncc(C(=O)O)c3C(F)(F)F)cc2)c1NC(=O)OC(C)c1ccccc1Cl` (centres unmarked) [Compound 1-4, 1-(4-{4-[1-(2-Chloro-phenyl)-ethoxycarbonylamino]-3-methyl-isoxazol-5-yl}-benzyl)-5-trifluoromethyl-1H-pyrazole-4-carboxylic acid]: 1000 to 50000 nM and less than 300 nM.
For `Cc1noc(-c2ccc(COc3ccccc3CC(=O)O)cc2)c1NC(=O)OC(C)c1ccccc1Cl` (centres unmarked) [Compound 1-79, [2-(4-{4-[1-(2-Chloro-phenyl)-ethoxycarbonylamino]-3-methyl-isoxazol-5-yl}-benzyloxy)-phenyl]-acetic acid] the same measures were 1000 to 50000 nM and less than 300 nM.
`Cc1noc(-c2ccc(COc3ccccc3CC(=O)O)cc2)c1NC(=O)O[C@H](C)c1ccccc1Cl` [Compound 1-114, [2-(4-{4-[(R)-1-(2-Chloro-phenyl)-ethoxycarbonylamino]-3-methyl-isoxazol-5-yl}-benzyloxy)-phenyl]-acetic acid]: the values for the IC50 in assay [1] and in assay [2] were 1000 to 50000 nM and less than 300 nM, respectively.
For `Cc1noc(-c2ccc(CS(=O)(=O)c3ccc(CC(=O)O)cc3)cc2)c1NC(=O)OC(C)c1ccccc1Cl` (centres unmarked) [Compound 1-97, [4-(4-{4-[1-(2-Chloro-phenyl)-ethoxycarbonylamino]-3-methyl-isoxazol-5-yl}-phenylmethanesulfonyl)-phenyl]-acetic acid] the same measures were 1000 to 50000 nM and less than 300 nM.
Turning to `Cc1noc(-c2ccc(-c3cc(CC(=O)O)ccc3F)cc2)c1NC(=O)OC(C)c1ccccc1Cl` (centres unmarked) [Compound 1-64, (4′-{4-[1-(2-Chloro-phenyl)-ethoxycarbonylamino]-3-methyl-isoxazol-5-yl}-6-fluoro-biphenyl-3-yl)-acetic acid], the IC50 in assay [1] is 1000 to 50000 nM; in assay [2] it was less than 300 nM.
The matching figures for `Cc1noc(-c2ccc(Oc3ccc(CC(=O)O)cc3)cc2)c1NC(=O)O[C@H](C)c1ccccc1Cl` [Compound 1-138, [4-(4-{4-[(R)-1-(2-Chloro-phenyl)-ethoxycarbonylamino]-3-methyl-isoxazol-5-yl}-phenoxy)-phenyl]-acetic acid]: 300 to 1000 nM and less than 300 nM.
For `Cc1noc(-c2ccc(Cc3cccc(CC(=O)O)c3)cc2)c1NC(=O)OC(C)c1ccccc1Cl` (centres unmarked) [Compound 1-21, [3-(4-{4-[1-(2-Chloro-phenyl)-ethoxycarbonylamino]-3-methyl-isoxazol-5-yl}-benzyl)-phenyl]acetic acid] the same measures were 1000 to 50000 nM and less than 300 nM.
The matching figures for `Cc1noc(-c2ccc(-c3ccc(CC(=O)O)cn3)cn2)c1NC(=O)O[C@H](C)c1ccccc1F` [Compound 1-126, (6′-{4-[(R)-1-(2-Fluoro-phenyl)-ethoxycarbonylamino]-3-methyl-isoxazol-5-yl}-[2,3,1]bipyridinyl-5-yl)-acetic acid]: 1000 to 50000 nM and less than 300 nM.
On to `Cc1noc(-c2ccc(CS(=O)(=O)c3cccc(CC(=O)O)c3)cc2)c1NC(=O)OC(C)c1ccccc1Cl` (centres unmarked) [Compound 1-98, [3-(4-{4-[1-(2-Chloro-phenyl)-ethoxycarbonylamino]-3-methyl-isoxazol-5-yl}-phenylmethanesulfonyl)-phenyl]acetic acid], for which the IC50 was greater than 50000 nM in assay [1] and less than 300 nM in assay [2].

Values taken from patent US20110301142A1, “ANTAGONISTS OF LYSOPHOSPHATIDIC ACID RECEPTORS” (priority 2008, published 2011).
